How the values were obtained:
Type in all cases: cell-based
Nav1.7 E1545A/E1600A = molecular target: T1, Nav1.7 E1545A/E1600A (Homo sapiens, UniProt Q15858, E1545A/E1600A); experiment: Multiple site-directed mutagenesis, inhibition by patch clamp; conditions: 1 μM
T1 construct: expressed in transfected cells; host or cells: HEK293T
From the text: (§1) To further investigate the roles of these residues in WN2-R binding, 3 combinations of double or triple site-directed mutagenesis were introduced, including Y1548A/F1609A (to investigate the function of phenyl ring-containing residues surrounding WN2-R, Fig. 4E), E1545A/E1600A (to examine the importance of negatively charged residues at the binding site entrance, Fig. 4F), and Y1548A/V1552A/M1593A (to understand the role of the outer hydrophobic wall formed by these residues in ligand binding, Fig. 4G).
(§2) Whole-cell patch-clamp recordings were conducted at 25 ± 2 °C, utilizing an EPC 10USB patch-clamp amplifier (HEKA Elektronik, Lambrecht, Germany). Pipettes, with access resistance between 2.0 and 3.0 MΩ, were pulled from borosilicate glass capillary tubes using a 2-step vertical microelectrode puller (PC-10, Narishige Group, Tokyo, Japan). Voltage-clamp recordings were obtained with PatchMaster software v2 × 73 (HEKA Elektronik) 5 min after establishing whole-cell configuration, sampled at 20 kHz, and filtered at 5 kHz. To minimize voltage errors, 80% series resistance compensation was applied. Pipettes were filled with 140 mM CsF, 10 mM NaCl, 1 mM EGTA, and 10 mM HEPES (pH=7.4, adjusted with CsOH). The external solution contained 140 mM NaCl, 2 mM CaCl2, 1 mM MgCl2, 5 mM KCl, 10 mM HEPES, and 10 mM glucose (pH=7.4, adjusted with NaOH). IC50 values were determined in HEK293T or ND7/23 cell lines by voltage clamping at −80 mV, followed by stepping to the V1/2 of inactivation for 8 s to facilitate compound binding.

Nav1.7 Y1548A/F1609A = molecular target: T2, Nav1.7 Y1548A/F1609A (Homo sapiens, UniProt Q15858, F1609A/Y1548A); experiment: as above; conditions: 1 μM
T2 construct: expressed in transfected cells; host or cells: HEK293T
From the text: as §1, §2

[1] = molecular target: T3, Nav1.7 Y1548A/V1552A/M1593A (Homo sapiens, UniProt Q15858, M1593A/V1552A/Y1548A); experiment: as above; conditions: 1 μM
T3 construct: expressed in transfected cells; host or cells: HEK293T
From the text: as §1, §2

[2] = system: native K+ current (Kv channels) in DRG neurons; experiment: Voltage-clamp recording of native K+ current in DRG neurons; conditions: 10 μM; mouse DRG neurons
Protocol: To investigate the mechanism of action of WN2-R and facilitate animal model experiments, we used voltage-clamp recording to test the effects of WN2-R on the native Na^+-, K^+-, and Ca^2+-mediated currents in DRG neurons. […] Furthermore, the effects of WN2-R on membrane excitability were examined in small (<30 μm) DRG neurons from mice using current-clamp recordings.
DRG isolation and culture were performed according to our previous report. Briefly, C57BL/6 mice (weight 18 to 20 g, 6 to 8 weeks) were euthanized via cervical dislocation under anesthesia. Lumbar DRGs were isolated from the L4 to L5 segments of the lumbar spinal cord. The DRG neurons were subsequently dissociated through enzymatic digestion with collagenase (0.32 mg/ml) and trypsin (0.15 mg/ml) at 37 °C for 30 min, with intermittent shaking. After centrifugation at 800 rpm for 5 min at room temperature, the cells were seeded onto poly-L-lysine-coated coverslips and cultured in DMEM (Gibco) supplemented with 10% fetal bovine serum (Gibco). […]
For recording Nav currents of DRG neurons, the bath solution contains (in mM) 30 NaCl, 1 MgCl2, 1.8 CaCl2, 5 CsCl, 5 KCl, 25 D-glucose, 5 HEPES, 0.1 CdCl2, and TEA-Cl (pH 7.4 with NaOH), and the pipette solution contains (in mM) 135 CsCl, 10 NaCl, and 5 HEPES (pH 7.4 with CsOH). The Nav current program is recorded following the above method. […]

T3 sequence (Q15858 whole entry Y1548A/V1552A/M1593A): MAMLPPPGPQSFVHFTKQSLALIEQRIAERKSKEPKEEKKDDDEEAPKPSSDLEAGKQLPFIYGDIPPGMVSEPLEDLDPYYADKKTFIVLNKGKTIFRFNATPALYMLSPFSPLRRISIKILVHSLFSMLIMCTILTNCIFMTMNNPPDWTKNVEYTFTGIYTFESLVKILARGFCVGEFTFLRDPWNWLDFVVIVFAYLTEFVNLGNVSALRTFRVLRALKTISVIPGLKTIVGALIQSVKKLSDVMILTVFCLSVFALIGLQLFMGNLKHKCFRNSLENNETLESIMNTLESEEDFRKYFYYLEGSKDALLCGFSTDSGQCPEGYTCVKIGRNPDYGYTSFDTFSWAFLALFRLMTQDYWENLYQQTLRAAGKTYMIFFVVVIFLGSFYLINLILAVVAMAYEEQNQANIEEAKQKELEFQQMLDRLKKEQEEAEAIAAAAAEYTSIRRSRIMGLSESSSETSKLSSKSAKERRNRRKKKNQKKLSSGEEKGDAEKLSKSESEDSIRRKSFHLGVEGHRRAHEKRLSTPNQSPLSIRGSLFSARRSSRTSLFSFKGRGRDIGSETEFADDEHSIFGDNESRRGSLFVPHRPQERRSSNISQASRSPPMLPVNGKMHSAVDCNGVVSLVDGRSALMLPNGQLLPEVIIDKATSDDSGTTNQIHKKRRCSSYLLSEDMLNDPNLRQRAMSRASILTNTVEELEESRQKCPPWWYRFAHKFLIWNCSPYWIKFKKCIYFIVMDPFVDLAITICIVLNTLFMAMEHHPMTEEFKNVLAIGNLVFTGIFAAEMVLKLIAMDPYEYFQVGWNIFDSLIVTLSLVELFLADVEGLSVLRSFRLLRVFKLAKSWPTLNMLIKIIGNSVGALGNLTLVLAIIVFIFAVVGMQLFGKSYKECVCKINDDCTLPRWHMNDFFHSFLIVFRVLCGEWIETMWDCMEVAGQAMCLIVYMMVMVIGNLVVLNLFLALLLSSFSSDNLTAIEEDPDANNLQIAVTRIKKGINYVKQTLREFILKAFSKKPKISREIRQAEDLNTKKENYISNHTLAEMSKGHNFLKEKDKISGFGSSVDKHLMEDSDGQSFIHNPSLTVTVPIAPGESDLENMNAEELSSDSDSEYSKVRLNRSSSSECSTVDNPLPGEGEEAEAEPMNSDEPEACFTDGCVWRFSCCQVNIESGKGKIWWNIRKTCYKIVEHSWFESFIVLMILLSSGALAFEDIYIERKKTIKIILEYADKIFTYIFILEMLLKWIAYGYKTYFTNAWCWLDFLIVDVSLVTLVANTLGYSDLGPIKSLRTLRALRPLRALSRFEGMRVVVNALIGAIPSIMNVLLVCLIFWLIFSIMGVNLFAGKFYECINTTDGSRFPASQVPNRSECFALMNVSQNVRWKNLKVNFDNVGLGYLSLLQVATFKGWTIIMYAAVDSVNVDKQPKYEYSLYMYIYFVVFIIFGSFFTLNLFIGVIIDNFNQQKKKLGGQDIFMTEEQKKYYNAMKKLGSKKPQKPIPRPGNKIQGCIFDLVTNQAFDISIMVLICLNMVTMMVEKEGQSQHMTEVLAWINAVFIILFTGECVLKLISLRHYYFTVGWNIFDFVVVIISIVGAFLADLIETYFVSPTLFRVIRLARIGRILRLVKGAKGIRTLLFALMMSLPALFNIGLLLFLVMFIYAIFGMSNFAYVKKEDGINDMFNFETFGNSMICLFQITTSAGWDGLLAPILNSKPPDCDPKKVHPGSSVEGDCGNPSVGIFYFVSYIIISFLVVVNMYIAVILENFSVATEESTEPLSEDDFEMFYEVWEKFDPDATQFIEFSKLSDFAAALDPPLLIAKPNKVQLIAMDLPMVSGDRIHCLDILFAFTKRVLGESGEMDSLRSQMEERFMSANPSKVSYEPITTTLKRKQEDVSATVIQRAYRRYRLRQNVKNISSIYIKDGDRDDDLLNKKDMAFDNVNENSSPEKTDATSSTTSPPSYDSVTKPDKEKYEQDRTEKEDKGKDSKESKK
T3 sequence (Q07699 19-218 partner): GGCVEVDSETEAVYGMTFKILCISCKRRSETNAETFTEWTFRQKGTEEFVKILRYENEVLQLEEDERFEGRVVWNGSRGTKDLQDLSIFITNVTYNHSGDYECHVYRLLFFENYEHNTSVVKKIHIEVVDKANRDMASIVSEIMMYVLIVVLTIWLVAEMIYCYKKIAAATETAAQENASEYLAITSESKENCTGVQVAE
T3 sequence (O60939 30-215 partner): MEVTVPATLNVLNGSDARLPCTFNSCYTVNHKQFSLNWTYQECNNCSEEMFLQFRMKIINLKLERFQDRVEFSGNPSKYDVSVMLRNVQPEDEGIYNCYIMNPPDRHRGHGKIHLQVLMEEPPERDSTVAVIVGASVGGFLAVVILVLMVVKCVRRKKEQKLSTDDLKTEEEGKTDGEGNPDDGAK
T2 sequence (Q15858 whole entry Y1548A/F1609A): as the sequence (Q15858 whole entry Y1548A/V1552A/M1593A) above, with A1552V, A1593M, F1609A counted along it
T2 sequence (Q07699 19-218 partner): as the sequence (Q07699 19-218 partner) above
T2 sequence (O60939 30-215 partner): as the sequence (O60939 30-215 partner) above
T1 sequence (Q15858 whole entry E1545A/E1600A): as the sequence (Q15858 whole entry Y1548A/V1552A/M1593A) above, with E1545A, A1548Y, A1552V, A1593M, E1600A counted along it
T1 sequence (Q07699 19-218 partner): as the sequence (Q07699 19-218 partner) above
T1 sequence (O60939 30-215 partner): as the sequence (O60939 30-215 partner) above

Cc1ccc(Cn2cc([C@H](CC(=O)NCCN(C)C)c3ccc(F)cc3)c3ccccc32)cc1 [WN2-R] was tested, and the “Effect of the mutation on antagonistic activity” value (“Effect of the mutation” for short) (Nav1.7 E1545A/E1600A) was “inhibitory effect on WN2-R activity”, the “Effect of the mutation” value (Nav1.7 Y1548A/F1609A) was “minimal effects” and the “Effect of the mutation” value [1] was “minimal effects”. For the same molecule, the “Effect on native K+ current” value [2] was “almost no effect”.

Reference: PMC11775380, “Discovery of Novel Nav1.7-Selective Inhibitors with the 1H-Indole-3-Propionamide Scaffold for Effective Pain Relief” (Research, 2025)
